The values below come from article PMC2711991 (Cancer research, 2009).

What all share (type): cell-based
Series [1] concerns the target T1, ABCG2 (Homo sapiens, UniProt Q9UNQ0).
T1 sequence (Q9UNQ0 1-655): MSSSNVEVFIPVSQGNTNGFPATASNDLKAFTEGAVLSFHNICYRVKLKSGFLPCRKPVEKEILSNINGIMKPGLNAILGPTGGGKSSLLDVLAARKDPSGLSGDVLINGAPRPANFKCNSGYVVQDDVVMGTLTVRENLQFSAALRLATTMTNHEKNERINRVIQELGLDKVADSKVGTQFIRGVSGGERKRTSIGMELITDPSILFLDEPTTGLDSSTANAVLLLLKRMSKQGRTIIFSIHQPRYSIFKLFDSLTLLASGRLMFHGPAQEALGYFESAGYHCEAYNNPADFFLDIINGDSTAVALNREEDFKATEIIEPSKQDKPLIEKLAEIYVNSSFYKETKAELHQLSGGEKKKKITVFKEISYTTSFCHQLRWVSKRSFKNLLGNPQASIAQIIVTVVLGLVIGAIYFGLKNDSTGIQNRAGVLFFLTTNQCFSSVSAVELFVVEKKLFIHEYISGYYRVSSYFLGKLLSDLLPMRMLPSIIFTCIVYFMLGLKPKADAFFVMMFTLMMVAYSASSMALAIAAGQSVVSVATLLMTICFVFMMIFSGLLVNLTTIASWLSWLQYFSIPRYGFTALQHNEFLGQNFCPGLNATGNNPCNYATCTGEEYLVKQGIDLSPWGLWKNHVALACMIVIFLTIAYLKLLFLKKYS
Nature of the series: BODIPY-prazosin uptake in HEK293/ABCG2 cells at […].

Series [2] deals with T1, ABCG2.
Series [3] deals with T1, ABCG2. Nature of the series: BLI D-luciferin efflux inhibition in HEK293/ABCG2/fLuc cells.

SMILES strings stand for the structures. Where a name gives a salt, the structure may show the parent alone.

In the case of `C=C(C)[C@H]1Cc2c(ccc3c2O[C@@H]2COc4cc(OC)c(OC)cc4[C@@H]2C3=O)O1` [rotenone], the “BODIPY-prazosin uptake in HEK293/ABCG2 cells at 20 μM; BLI 6.7-fold enhancement;” value at ABCG2 [1] was “rotenone|Y|Y”.
Consider `CC(C)C(=O)Nc1ccc([N+](=O)[O-])c(C(F)(F)F)c1` [flutamide], for which, on ABCG2 [2], the “BODIPY-prazosin uptake in HEK293/ABCG2 cells at 20 μM; BLI 6.1-fold enhancement;” value is reported as “flutamide|Y|Y”.
One may read the IC50 as the midpoint of a concentration-inhibition curve. Lower therefore signals greater potency in that assay. At ABCG2 [3], `COc1cc2nc(N3CCN(C(=O)C4COc5ccccc5O4)CC3)nc(N)c2cc1OC` (centres unmarked) [doxazosin mesylate] returned an IC50 of about 8 µM.
As for `Cc1c(-c2ccccc2)oc2c(C(=O)OCCN3CCCCC3)cccc2c1=O` [flavoxate hydrochloride], on ABCG2 [3], the IC50 is about 20 µM.
Turning to `COc1cc(N)c(Cl)cc1C(=O)NC1CCN(Cc2ccccc2)CC1` [clebopride maleate], the IC50 against ABCG2 [3] is about 8.2 µM.
